Test results reported in patent publication US20110144079A1, “ANTIMICROBIAL SYSTEM” (priority 2008, published 2011).

What was measured:
E. coli PIII [1] = test: Broth microdilution MIC; format: cell-based; conditions: Escherichia coli
Outline: (§1)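 Sterile-filtered imidazolium salts are diluted two-fold (0.0000625–1% w/v) in MHB, challenged with 2×10^5 CFU/ml bacteria, and held aerobically at 37 °C for 24 h. Bactericidal endpoints use 24 h MHA subculture of clear wells, requiring 99.9% kill.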

B. cenocepacia J2315 = test: Biofilm assay (Calgary Biofilm Device), MBEC; format: cell-based; conditions: B. cenocepacia J2315 24 h biofilm, 24 h challenge
Outline: (§2)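 24 h biofilms grown on Calgary Biofilm Device pegs in MHB from ~10^7 CFU ml^−1 inocula at 37 °C, 95% RH with gyrorotary shaking. Rinsed pegs challenged with serial dilutions of imidazolium salts in MHB; biofilms sonicated into recovery medium. MBEC = lowest concentration with no growth (turbidity, OD 550 nm) after 24 h, confirmed after a further 24 h.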

[2] = tested on: S. epidermidis ATCC 35984; test: Biofilm assay (Calgary Biofilm Device), MBEC; format: cell-based
Outline: as §2

C. tropicalis NCTC 7393 = test: Biofilm assay (Calgary Biofilm Device), MBEC; format: cell-based; conditions: C. tropicalis NCTC 7393 24 h biofilm, 24 h challenge
Outline: as §2

K. aerogenes NCTC 7427 = test: Biofilm assay (Calgary Biofilm Device), MBEC; format: cell-based; conditions: K. aerogenes NCTC 7427 24 h biofilm, 24 h challenge
Outline: as §2

E. coli PIII [3] = test: Biofilm assay (Calgary Biofilm Device), MBEC; format: cell-based
Outline: as §2

P. mirabilis NCTC 12442 = test: Biofilm assay (Calgary Biofilm Device), MBEC; format: cell-based; conditions: P. mirabilis NCTC 12442 24 h biofilm, 24 h challenge
Outline: as §2

E-MRSA 15 = test: Biofilm assay (Calgary Biofilm Device), MBEC; format: cell-based; conditions: E-MRSA 15 24 h biofilm, 24 h challenge
Outline: as §2

S. aureus ATCC 29213 = test: Biofilm assay (Calgary Biofilm Device), MBEC; format: cell-based; conditions: S. aureus ATCC 29213 24 h biofilm, 24 h challenge
Outline: as §2

P. aeruginosa PA01 = test: Biofilm assay (Calgary Biofilm Device), MBEC; format: cell-based
Outline: as §2

[4] = tested on: Staphylococcus Epidermidis; test: Kill kinetics, planktonic cell cultures; format: cell-based; conditions: 40 μM
Description: (§3) The kill kinetic data is provided in terms of the measured colony forming units per millilitre (CFU/mL) values, and is also provided graphically in FIGS. 9-11.

Escherichia Coli = test: Kill kinetics, planktonic cell cultures; format: cell-based; conditions: 265 μM
Description: as §3

[5] = tested on: Methicillin Resistant Staphylococcus Aureus (MRSA); test: Kill kinetics, planktonic cell cultures; format: cell-based; conditions: 40 μM
Description: as §3

MRSA [6] = test: Broth microdilution MIC/MBC; format: cell-based, methicillin-resistant S. aureus; conditions: Staphylococcus aureus
Outline: as §1

MRSA [7] = test: Zone of inhibition on MRSA-seeded agar culture plates; format: cell-based, methicillin-resistant S. aureus; conditions: 40 μL of ionic liquid applied to MRSA-seeded agar culture plates
Description: As used herein, CyMIMCI, refers to 1-alkyl-3-methyl-imidazolium chloride ionic liquids, wherein the alkyl group is a straight chain alkyl group having y carbon atoms.

MRSA [8] = test: Biofilm assay (Calgary Biofilm Device), MBEC; format: cell-based, methicillin-resistant S. aureus
Experimental: Biofilms of each test organism were grown in the Calgary Biofilm Device (commercially available as the MBEC Assay™ for Physiology & Genetics, Innovotech Inc., Edmonton, Alberta, Canada). The device, a micro-titre plated based assay, consists of two parts; a microtitre plate containing the inoculated test medium and a polystyrene lid with 96 identical pegs on which the microbial biofilm forms under gyrorotary incubation. The biofilm assay was conducted according to the MBEC™ assay protocol as supplied by the manufacturer, with slight modifications. Inocula of each test organism were prepared in MHB as described above and adjusted to provide a final inoculum density of ˜10^7 CFU ml^−1 (as confirmed by viable count). 150 μl of the inoculated media was transferred to each well of the 96-well microtitre plate and the assay plate lid, bearing 96 pegs was placed into the microtitre plate. The MBEC assay plates were placed in a gyrorotary incubator (37° C., 95% relative humidity) for 24 h to permit growth and comparison of 24 h biofilms of each test strain. Positive and negative growth controls were included in each plate (6 replicates). Initial and 24 h planktonic viable counts were measured, as were 24 h biofilm counts, expressed as CFU peg^−1, according to manufacturers instructions. After 24 h, the peg lid of the MBEC assay plate was gently rinsed three times. After rinsing, the peg lid of the MBEC assay was transferred to a ‘challenge’ plate. Serial dilutions of each imidazolium salt were prepared in 200 μl of MHB containing various concentrations of IL in each well. Positive growth control and sterility control were included in each assay plate. […] Biofilms were dislodged into recovery media by sonication for 5 minutes and the peg lid discarded. The recovery plate is incubated overnight and visually checked after 24 h for turbidity. In addition, optical density measurements for each plate were recorded at 550 nm. Clear wells were taken as evidence of biofilm eradication and the MBEC value was assigned as the lowest concentration at which no growth was observed after 24 h incubation. Plates were incubated for a further 24 h to confirm biofilm eradication concentrations.

For `CCCCCCCCCCCCCCn1cc[n+](C)c1.[Cl-]` [C14MIMCl, 1-tetradecyl-3-methylimidazolium chloride], the MIC (E. coli PIII [1]) was 33 µM, the MBEC (B. cenocepacia J2315) was 496 µM and the MBEC ([2]; S. epidermidis ATCC 35984 24 h biofilm, 24 h challenge) was 124 µM. The “percent weight to volume of ionic liquid that corresponds to the MBEC value” (“percent weight to volume” below) ([2]; S. epidermidis ATCC 35984 biofilm) was “(0.004 % w/v”, the MBEC (C. tropicalis NCTC 7393) was 248 µM and the MBEC (K. aerogenes NCTC 7427) was 248 µM. For the same compound, the MBEC (E. coli PIII [3]; E. coli PIII 24 h biofilm, 24 h challenge) was 124 µM, the “percent weight to volume” value (E. coli PIII [3]; E. coli PIII biofilm) was “(0.004 % w/v” and the MBEC (P. mirabilis NCTC 12442) was 1984 µM. For the same compound, the MBEC (E-MRSA 15) was 248 µM, the MBEC (S. aureus ATCC 29213) was 124 µM and the MBEC (P. aeruginosa PA01; P. aeruginosa PA01 24 h biofilm, 24 h challenge) was 496 µM. For the same compound, the “percent weight to volume” value (P. aeruginosa PA01; P. aeruginosa PA01 biofilm) was “(0.016 % w/v”, the “colony forming units per millilitre” value ([4]; 0 Minutes) was 8.67 × 10^7 CFU/mL and the “colony forming units per millilitre” value ([4]; 5 Minutes) was 0.00 CFU/mL. For the same compound, the “colony forming units per millilitre” value ([4]; 10 Minutes) was 0.00 CFU/mL, the “colony forming units per millilitre” value ([4]; 20 Minutes) was 0.00 CFU/mL and the “colony forming units per millilitre” value ([4]; 30 Minutes) was 0.00 CFU/mL. The “colony forming units per millilitre” value ([4]; 45 Minutes) was 0.00 CFU/mL, the “colony forming units per millilitre” value (Escherichia Coli; 0 Minutes) was 1.67 × 10^8 CFU/mL and the “colony forming units per millilitre” value (Escherichia Coli; 5 Minutes) was 1.07 × 10^4 CFU/mL. For the same compound, the “colony forming units per millilitre” value (Escherichia Coli; 10 Minutes) was 2.33 × 10^3 CFU/mL, the “colony forming units per millilitre” value (Escherichia Coli; 20 Minutes) was 0.00 CFU/mL and the “colony forming units per millilitre” value (Escherichia Coli; 30 Minutes) was 0.00 CFU/mL. The “colony forming units per millilitre” value (Escherichia Coli; 45 Minutes) was 0.00 CFU/mL, the “colony forming units per millilitre” value ([5]; 0 Minutes) was 1.52 × 10^8 CFU/mL and the “colony forming units per millilitre” value ([5]; 5 Minutes) was 1.78 × 10^5 CFU/mL. For the same compound, the “colony forming units per millilitre” value ([5]; 10 Minutes) was 2.75 × 10^3 CFU/mL, the “colony forming units per millilitre” value ([5]; 20 Minutes) was 3.33 × 10^2 CFU/mL and the “colony forming units per millilitre” value ([5]; 30 Minutes) was 0.00 CFU/mL. For the same compound, the “colony forming units per millilitre” value ([5]; 45 Minutes) was 0.00 CFU/mL, the MBC (MRSA [6]; 99.9% killing) was 66 µM and the MIC (MRSA [6]; 24 h at 37° C.) was 16 µM. The “Zone Of Inhibition Radius” value (MRSA [7]) was 10 mm, the MBEC (MRSA [8]; MRSA 24 h biofilm, 24 h challenge) was 124 µM and the “percent weight to volume” value (MRSA [8]; MRSA biofilm) was “(0.004 % w/v”.
